Laboratory results reported in patent US10844091B2 (priority 2017, dated 2020).
Marks after values point to notes of the source that are not given here. Non-standard residues stand in square brackets, D forms with d.

How the values were obtained:
Format in all cases: in vivo
rat models with AD [1] = test: Open field (OF) test, scopolamine-induced Alzheimer's disease model; details: scopolamine AD rats; 0.1 mg/kg i.n. 10 days; p<0.05
Procedure: (§1) White random-bred adult male rats weighing 200-240 g were used. Groups of 7 animals per group were formed. 1st group—control, 2nd—pathology, 3rd—comparator drug, 4th-6th—neuropeptides.
(§2) The drugs were administered daily, once a day.
After a course of treatment with the preparations, the CNS function of the animals was evaluated according to the open field (OF), extrapolation escape (EE), and conditioning passive avoidance reflex (CPAR) tests [Guidelines for conducting nonclinical studies of pharmaceuticals/edited by A. N. Mironov, MD, PhD, Part 1, M.: Grief and K, 2012-944 p.; Methods of behavior analysis in neuroscience—London, New York, Washington: CRCPress, 2001.-329 p.], and also The Porsolt swim test (PST) [Methods of behavior analysis in neuroscience—London, New York, Washington: CRCPress, 2001.-329 p; Porsolt R. D. Depression: A new animal model sensitive to antidepressant treatments/R. D. Porsolt, M. LePichon, M. Oalfre//Nature.—1977.—Vol. 266.—P. 730-732.].
The OF and EE tests were conducted on the 1st day, PST—on the 2nd day, CPAR—on the 1st and 10th day post treatment with the preparations. […] The antiamnesic action (AA) in the CPAR test was calculated using Butler's formula [K. S. Radionova. […] The brain was extracted and weighed, and the brain weight coefficient (BWC) was calculated. […]

catalase = test: Catalase activity in the brain of rat models with Alzheimer's disease; details: tetrapeptide 0.1 mg/kg; statistically significant
Procedure: as §2
Standard biochemical methods were used to determine the content and activity of antioxidant defense enzymes and products of lipid peroxidation: malonic dialdehyde (MDA) [Modern Biochemistry Methods/[edited by V. N. Orekhovich]; M. Medicine, 1977, 392 pp]; superoxide dismutase (SOD) [O. P. Makarevich Activity of superoxide dismutase in blood in the acute period of various diseases/O. P. Makarevich, P. P. Golikov//Lab. Science, 1983, No 6, pp 24-27]; catalase [Methods for the Determination of Catalase Activity/M. A. Korolyuk, L. I. Ivanova, I. G. Mayorova, et al//Lab. Science, 1988, No 1, pp 16-19]; and reduced glutathione [T. A. Kochetov A Practical Guide to Enzymology. M. Nauka, 1980, 280 pp].

rat models with AD [2] = test: Porsolt swim test (PST), scopolamine-induced Alzheimer's disease model; details: AD rats; donepezil 1 mg/kg i.p., tetrapeptide (LYS) 0.1 mg/kg i.n.
Procedure: as §1
(§3) Scopolamine was administered i.p. to the animals in all groups except for the control at a 1 mg/kg dose daily, once a day for 27 days. From the 28th day on, the animals in groups 2 and 3 were administered the comparator drug and the claimed preparation respectively over the course of 10 days. The drugs were administered daily, once a day.
(§4) The tetrapeptides were administered i.n at a 0.1 mg/kg dose. The animals in the pathology group received 0.9% sodium chloride solution i.n. and i.p. as a placebo.
(§5) The OF and EE tests were conducted on the 1st day, PST—on the 2nd day, CPAR—on the 1st and 10th day post treatment with the preparations. […] The antiamnesic action (AA) in the CPAR test was calculated using Butler's formula [K. S. Radionova. […] After that, the animals were removed from the experiment by administering a narcotic, followed by decapitation. The brain was extracted and weighed, and the brain weight coefficient (BWC) was calculated. Immediately after extraction, the brain was frozen in liquid nitrogen and used in subsequent biochemical and histochemical studies. Glucose levels in whole arterial (common carotid artery) and venous (venous cerebral sinus) blood were determined by the glucose oxidase test, the difference in the arterial-venous glucose content was calculated (glucose consumption marker). The levels of average weight molecules—the toxic products of cell biodegradation damaged during the disease (nucleoside derivatives, peptoids, glucuronic acid salts, etc.) in the blood serum (AWM) were calculated [A. N. Kovalevsky. Notes on the screening method of determination average weight molecules/A. N. Kovalevsky, O. Ye. Nifantiev//Lab. Science. […] 35-39].

[3] = tested on: rat models with Alzheimer's disease; test: Extrapolation escape (EE) test, scopolamine-induced Alzheimer's disease model
Procedure: as §1, §3, §4, §5

acetylcholine = test: Acetylcholine content in the brain homogenate of rat models with Alzheimer's disease; details: compared to the control, pathology and donepezil groups, p<0.05
Procedure: as §2
1966, t. […] M. I. Prokhorova, Leningrad, pub. House LSU, 1982.—pp. 256-258].

[4] = 3 min test, scopolamine 1 mg/kg i.p. 27 days, donepezil 1 mg/kg i.p. 10 days, peptide (LYS) 0.1 mg/kg i.n. 10 days

Substance: acetyl-D-Lys-Lys-Arg-Arg-amide (Ac-[dK]KRR-NH2; SMILES CC(=O)N[C@H](CCCCN)C(=O)N[C@@H](CCCCN)C(=O)N[C@@H](CCCNC(=N)N)C(=O)N[C@@H](CCCNC(=N)N)C(N)=O) [tetrapeptide (LYS), peptide acetyl-X-ARG-ARG-amide, X = D- and L-amino acid residues of lysine]
- reduction of the number of grooming acts in the OF (rat models with AD [1]): 44.7%
- reduction of the elevated activity of catalase (catalase): 1.1 times
- Latent period of immobilization (rat models with AD [2]): 68.12 ± 6.15 s
- Number of immobilization acts (rat models with AD [2]): 6.21 ± 0.82
- Total duration of immobilization (rat models with AD [2]): 111.06 ± 13.25 s
- reduction of escape time compared to the pathology group ([3]; 0.1 mg/kg i.n. 10 days, p<0.05): 3.8 times
- escape time difference versus donepezil ([3]; 0.1 mg/kg i.n. vs donepezil 1 mg/kg, p<0.05): 41.7%
- % of animals succeeded [3, 4]: 100%
- Escape time [3, 4]: 11.00 ± 3.07*^ sec.
- content of acetylcholinesterase in the brain (FIG. 11) (acetylcholine): statistically significantly reduces
